Values quoted from earlier work as cited in patent US20020022622A1, “Thiazole, imidazole and oxazole compounds and treatments of disorders associated with protein aging” (priority 2000, published 2002).

Experiments:
[1] = test system: aortic wall protein cross-linking; conditions: diabetic rats
[2] = test system: immunoglobulin trapping in the kidney; conditions: in vivo
[3] = test system: glomerular basement membrane thickness; conditions: streptozotocin-diabetic rat model
red blood cells = conditions: in vivo

Structure (SMILES): N=C(N)NN [aminoguanidine]
- aortic wall protein cross-linking [1]: diminishes
- immunoglobulin trapping in the kidney [2]: reduction
- increased glomerular basement membrane thickness [3]: prevented
- diabetes-induced changes in the deformability of red blood cells (red blood cells): prevent
